Measured values: publication PMC8534003, “The Chemokine-Based Peptide, CXCL9(74-103), Inhibits Angiogenesis by Blocking Heparan Sulfate Proteoglycan-Mediated Signaling of Multiple Endothelial Growth Factors” (Cancers, 2021)
Where no end group is shown, it is not given here. TAMRA = 5(6)-carboxytetramethylrhodamine

Columns and labels:
phospho-ERK1/2 = assay: Signal transduction assay, EGF-induced ERK phosphorylation in HMVECs (ELISA); type: cell-based, human; conditions: EGF 10 ng/mL, 15 min, compared to control (100%), n ≥ 3
Description: HMVECs and MECs were seeded in 6-well plates at 1.25 × 10^5 cells/well in their respective culture medium. Once the cell density reached 70–80% confluency, the cells were starved in serum-free medium overnight. Fifteen minutes prior to stimulation, cells were incubated with various concentrations of CXCL9(74-103) or CXCL9(86-103) in 0.5% (v/v) BSA in MCDB131 or DMEM medium (assay medium for HMVECs and MECs, respectively) at 37 °C. HMVECs and MECs were stimulated with assay medium alone or supplemented with 10 ng/mL EGF or 5 ng/mL murine VEGF165 at 37 °C for 15 or 5 min, respectively. Then, the cells were placed on ice, washed with ice-cold PBS and 90 µL of lysis buffer [1% (v/v) protease inhibitor cocktail, phosphatase inhibitor cocktail 2 and 3 (all Sigma-Aldrich) in 1 mM ethylenediaminetetraacetic acid (EDTA), 0.5% (v/v) Triton™ X-100, 5 mM NaF, 6 M urea in PBS] was added per well. […] The amount of phospho-ERK1/2 in the cell lysates was determined using an ERK1 (Thr202/Tyr204)/ERK2 (Thr185/Tyr187) ELISA duoset (R&D Systems) according to the manufacturer’s instructions. The amount of phosphorylated ERK was normalized to the total protein content in the samples measured by the Pierce™ bicinchoninic acid (BCA) protein assay kit (Thermo Fisher Scientific).

[1] = tested on: human microvascular endothelial cells (HMVECs); assay: xCELLigence chemotaxis assay (HMVEC migration); type: cell-based; conditions: EGF 10 ng/mL, FGF-2 30 ng/mL or VEGF165 10 ng/mL in lower chamber
Description: To evaluate the effect of the CXCL9-derived peptides on growth factor-induced endothelial cell migration, the xCELLigence® real-time cell analyzer (RTCA DP) system (ACEA Biosciences, Inc.; San Diego, CA, USA) was used. First, 160 µL MCDB131 medium (Gibco) supplemented with 0.4% (v/v) FCS (control medium) or 160 µL control medium with 30 ng/mL FGF-2, 10 ng/mL VEGF165 or 10 ng/mL EGF were added to the lower chamber of a cell invasion/migration (CIM)-Plate (ACEA Biosciences, Inc.). After assembly of the lower and upper chamber, 50 µL of serum-free MCDB131 medium was added in the upper wells. Following equilibration of the plate at 37 °C for 1 h, HMVECs were added in the upper chamber at 4 × 10^4 cells in 100 µL/well. CXCL9(74-103) or CXCL9(86-103) was added together with the cells in the upper compartment at a concentration of 0.3 or 3 µM. The assembled CIM-Plate was left at room temperature for 30 min to allow the cells to settle onto the membrane. Finally, the plate was placed in the instrument at 37 °C to monitor cell migration for 15 h. Cell migration from one compartment to the other was recorded (one recording every minute) as changes in electrical impedance. These changes were converted into cell indices, as a measure of cell migration.

[2] = tested on: human microvascular endothelial cells (HMVECs); assay: Endothelial cell proliferation assay (MTT or ATP lite); type: cell-based; conditions: EGF, VEGF165 5 ng/mL or FGF-2 3 ng/mL as single stimulus
Description: The ability of the CXCL9-derived peptides to inhibit growth factor-induced proliferation of endothelial cells was assessed. HMVECs were seeded at 5 × 10^3 cells/well in EBM™-2 medium containing 1% (v/v) FCS (proliferation medium). After settling of the cells, they were stimulated with EGF, VEGF165 (both 5 ng/mL) or FGF-2 (3 ng/mL) as a single stimulus or in combination with CXCL9(86-103) or CXCL9(74-103) at 0.3 or 3 µM in proliferation medium or left untreated. HMVECs were also treated with 0.3 or 3 µM of CXCL9(74-103) or 3 µM of CXCL9(86-103) alone to assess the effect of CXCL9-derived peptide treatment on spontaneous proliferation. After 3 to 4 days, a 3-(4,5-dimethylthiazol-2-yl)-2,5-diphenyl tetrazolium bromide (MTT) or ATP lite assay was performed. The ATP lite assay was performed according to the manufacturer’s instructions (Perkin Elmer, Waltham, MA). When MTT was used as substrate, the medium was replaced with 200 µL of MTT solution (RPMI without phenol red containing 0.4 g/L MTT) and the cells were incubated at 37 °C and 5% CO2 in the dark for 4 hours. Then, the MTT solution was discarded and the formed formazan crystals were dissolved in 200 µL acidic propanol [0.04 M HCl, 0.1% (v/v) NP-40 in isopropanol] under continuous shaking in the dark for 10 min. The optical densities were measured at 570 nm and 630 nm (reference wavelength).

[3] = tested on: FGF-2-induced angiogenesis, C57BL/6 mice; assay: In vivo angiogenesis Matrigel plug assay; design: species or system mouse; conditions: 180 ng FGF-2 alone, day 7
Description: Six-to-eight-week-old female C57BL/6 mice were anesthetized with a mixture of 2.5 mg/mL xylazine (V.M.D, Inovet, Arendonk, Belgium) and 37.5 mg/mL ketamine (Dechra, Northwich, UK) in PBS by i.p. injection. A vertical dorsal incision was made and an ALZET osmotic pump (model 1007D, DURECT Corporation, Cupertine, CA, USA) filled with 400 µg/100 µL CXCL9(74-103) or 100 µL PBS was subcutaneously (s.c.) implanted. The incision was closed with a surgical suture. Growth factor-reduced Matrigel (Corning Matrigel Growth Factor (GFR) Basement Membrane Matrix, Phenol Red-Free, LDEV-Free; Corning Life Sciences, Amsterdam, The Netherlands) was s.c. injected in the dorsal flank forming a firm plug (600 µL/plug). The Matrigel was either injected as such (control plugs) or supplemented with 300 µg CXCL9(74-103) and/or 180 ng FGF-2. Seven days later, the mice were sacrificed. Thirty minutes before sacrifice, the mice were i.v. injected with 200 µL (25 mg/kg) FITC-labeled 2000 kDa dextran (Sigma-Aldrich) to quantify vessel formation in the Matrigel plugs. Blood was collected through cardiac puncture into heparinized tubes containing 20 µL heparin (5.000 IE/mL, Leo Pharma, Ballerup, Denmark). The blood was centrifuged at 200 g and 4 °C for 10 min, whereafter the supernatant was centrifuged at 3000 g and 4 °C for 10 min. The collected plasma was stored away from light at 4 °C until analysis. The Matrigel plugs were removed and enzymatically and mechanically digested in 1.2 mL dispase (Corning Life Sciences) using an incubation at 37 °C for 1.5 h and the gentleMACS™ Dissociator (Miltenyi Biotec, Bergisch Gladbach, Germany). The digested Matrigel plugs were filtered through a 70 µm cell strainer, washed with 1.5 mL FACS buffer [2% (v/v) FCS + 2 mM EDTA in PBS] and centrifuged at 300 g and 4 °C for 7 min. The supernatant (SN) was centrifuged again at 300 g and 4 °C for 7 min and the SN was retained away from light at 4 °C until analysis. The pellet was resuspended in 1 mL FACS buffer, the cells were counted and used for flow cytometry. The antibodies used to identify endothelial cells were anti-mouse CD45-APC (clone 30-F11, eBioscience, Thermo Fisher Scientific), anti-mouse CD146-PE (clone ME-9F1) and anti-mouse Pan-endothelial Cell Antigen-BV711 (clone MECA-32) antibodies (both BD Biosciences). Mice experiments were approved by the Ethical Committee of KU Leuven (project number P199/2018).

HMVEC spheroids = assay: Spheroid sprouting assay; type: cell-based, human; conditions: FGF-2 10 ng/mL, 16 hours
Description: A 1:5 mixture of endothelial cells (4 × 10^4 cells/mL) and methylcellulose (Sigma-Aldrich, Saint Louis, MO, USA; 12 mg/mL in EBM™-2 basal medium) in EBM™-2 cell culture medium was prepared. Drops of 1 × 10^3 HMVECs were plated on a petri dish and allowed to form single spheroids in hanging droplets at 37 °C, 5% CO2 for 24 h. Spheroids were collected, sedimented by centrifugation and resuspended in a mixture of 24 mg/mL methylcellulose in basal EBM™-2, 1 mg/mL collagen type I (BD Biosciences, San Jose, CA, USA), 2.5 mg/mL NaHCO3 and 10 mM NaOH. The suspension was plated in a 96-well plate and the collagen was allowed to polymerize at 37 °C, 5% CO2 for 30 min. Spheroids were left untreated or stimulated with 0.3 or 3 µM of CXCL9(74-103) or 3 µM of CXCL9(86-103) for 15 min prior to addition of 10 ng/mL FGF-2 or 10 ng/mL EGF in EBM™-2 + 3% (v/v) FCS. In some experiments, HMVECs were pretreated with heparinase II (vide infra). After 16 hours, spheroid sprouting was assessed with an inverted Axiovert 200M microscope (Zeiss, Germany) through a 10× objective. The average number of sprouts was calculated and the average sprout length per spheroid was measured using Fiji software.
Sprouting experiments examining the dependency on HS binding for the inhibitory action of CXCL9(74-103) were performed as described above (vide supra). […]

[4] = tested on: cell surface HS on HMVECs; assay: Cellular HS binding of TAMRA-labeled CXCL9(74-103), flow cytometry; design: species or system human; conditions: 1 representative of 3 experiments
Description: CXCL9(74-103) binding to cellular HS was assessed via flow cytometry. HMVECs were either left untreated or incubated with 0.75 U/mL heparinase II (Sigma-Aldrich) at 37 °C for 2 h. Cells were harvested and left at room temperature for 1 h to recuperate, they were then placed on ice and centrifuged. After centrifugation (300 g, 4 °C, 7 min) and resuspension in PBS, 1 × 10^5 cells per condition were stained with 3, 0.6 or 0.12 nM TAMRA-labeled CXCL9(74-103). To verify downregulation of HS expression, cells were stained with mouse anti-HS Ab (clone F58-10E4, Cat No 370255-S; Amsbio, Abingdon, UK) and R-PE goat anti-mouse IgM Ab (Cat No 115-116-075; Jackson ImmunoResearch, Westgrove, PA, USA). Flow cytometric analysis was performed using the BD LSRFortessa™ X-20 flow cytometer and FlowJo software (both BD Biosciences).

| Substance | phospho-ERK content (phospho-ERK1/2) [%] | enhancement of migration by growth factor alone [1] | enhancement of proliferation by growth factor alone [2] | CD146+MECA-32+ cell population, FGF-2 compared to control [3] [fold] | fluorescence ratio, FGF-2 plug compared to control [3] | number of cells inside plug, FGF-2 compared to control [3] [fold] | sprouting in response to FGF-2 alone (HMVEC spheroids) | binding to untreated HMVECs ([4]; 3, 0.6 or 0.12 nM TAMRA-labeled peptide) | binding to heparinase II-treated HMVECs ([4]; heparinase II 0.75 U/mL, 37 °C, 2 h, 3, 0.6 or 0.12 nM) |
| --- | --- | --- | --- | --- | --- | --- | --- | --- | --- |
| EGF: human recombinant EGF (R&D Systems), stimulus | 247 | significant enhancement of endothelial cell migration | significant enhancement of proliferation |  |  |  |  |  |  |
| FGF-2: human recombinant FGF-2 (R&D Systems), stimulus |  | significant enhancement of endothelial cell migration | significant enhancement of proliferation | ~3 | doubled the fluorescence ratio compared to the control | ~3 | pronounced endothelial sprouting |  |  |
| TAMRA-labeled CXCL9(74-103): CXCL9(74-103) fluorescently labeled at the NH2-terminus with 5(6)-carboxytetramethylrhodamine ({TAMRA}-KKKQKNGKKHQKKKVLKVRKSQRSRQKKTT; UniProt Q07325 96-125, looked up, fragment) |  |  |  |  |  |  |  | bound CXCL9(74-103) in a concentration-dependent manner | bound CXCL9(74-103) less efficiently compared to cells with intact HS |
